Tests used:
Type in all cases: in vivo
Conditions in all cases: 312 h, evaluated after 13 days, 100=total damage to plant, 0=no damage to plant
[1] = tested on: Euphorbia heterophylla (EPHHL); assay: Pre-emergence biological efficacy
Experimental: (§1) Seeds of weeds and/or crops were sown in standard soil in pots (Amaranthus palmeri (AMAPA), Lolium perenne (LOLPE), Euphorbia heterophylla (EPHHL), Ipomoea hederacea (IPOHE), Setaria faberi (SETFA), Echinochloa crus-galli (ECHCG)). After cultivation for one day under controlled conditions in a glasshouse (at 24/19° C., day/night; 16 hours light), the plants were sprayed with an aqueous spray solution derived from the formulation of the technical active ingredient in a small amount of acetone and a special solvent and emulsifier mixture referred to as IF50 (11.12% Emulsogen EL360™+44.44% N-methylpyrrolidone+44.44% Dowanol DPM glycol ether), to create a 50 g/l solution which was then diluted using 0.2% Genapol XO80 as diluent to give the desired final dose of test compound.
(§2) The test plants were then grown under controlled conditions in the glasshouse (at 24/18° C., day/night; 15 hours light; 50% humidity) and watered twice daily. After 13 days the test was evaluated (100=total damage to plant; 0=no damage to plant).

[2] = tested on: Ipomoea hederacea (IPOHE); assay: Pre-emergence biological efficacy
Experimental: as §1, §2

[3] = tested on: Setaria faberi (SETFA); assay: Pre-emergence biological efficacy
Experimental: as §1, §2

[4] = tested on: Lolium perenne (LOLPE); assay: Pre-emergence biological efficacy
Experimental: as §1, §2

[5] = tested on: Amaranthus palmeri (AMAPA); assay: Pre-emergence biological efficacy
Experimental: as §1, §2

[6] = tested on: Echinochloa crus-galli (ECHCG); assay: Pre-emergence biological efficacy
Experimental: as §1, §2

[7] = tested on: Euphorbia heterophylla (EPHHL); assay: Post-emergence biological efficacy
Experimental: as §1, with “Chenopodium album (CHEAL),” for “Lolium perenne (LOLPE),”, “(IPOHE), Eleusine indica (ELEIN), Lolium perenne (LOLPE), Digitaria sanguinalis (DIGSA),” for “(IPOHE),”, “14 days” for “one day”, “compound. The test plants were then grown under controlled conditions in the glasshouse (at 24/18° C., day/night; 15 hours light; 50% humidity) and watered twice daily. After 13 days the test was evaluated (100=total damage to plant; 0=no damage to plant).” for “compound.”

[8] = tested on: Digitaria sanguinalis (DIGSA); assay: Post-emergence biological efficacy
Experimental: as §1, with “Chenopodium album (CHEAL),” for “Lolium perenne (LOLPE),”, “(IPOHE), Eleusine indica (ELEIN), Lolium perenne (LOLPE), Digitaria sanguinalis (DIGSA),” for “(IPOHE),”, “14 days” for “one day”, “compound. The test plants were then grown under controlled conditions in the glasshouse (at 24/18° C., day/night; 15 hours light; 50% humidity) and watered twice daily. After 13 days the test was evaluated (100=total damage to plant; 0=no damage to plant).” for “compound.”

[9] = tested on: Ipomoea hederacea (IPOHE); assay: Post-emergence biological efficacy
Experimental: as §1, with “Chenopodium album (CHEAL),” for “Lolium perenne (LOLPE),”, “(IPOHE), Eleusine indica (ELEIN), Lolium perenne (LOLPE), Digitaria sanguinalis (DIGSA),” for “(IPOHE),”, “14 days” for “one day”, “compound. The test plants were then grown under controlled conditions in the glasshouse (at 24/18° C., day/night; 15 hours light; 50% humidity) and watered twice daily. After 13 days the test was evaluated (100=total damage to plant; 0=no damage to plant).” for “compound.”

[10] = tested on: Setaria faberi (SETFA); assay: Post-emergence biological efficacy
Experimental: as §1, with “Chenopodium album (CHEAL),” for “Lolium perenne (LOLPE),”, “(IPOHE), Eleusine indica (ELEIN), Lolium perenne (LOLPE), Digitaria sanguinalis (DIGSA),” for “(IPOHE),”, “14 days” for “one day”, “compound. The test plants were then grown under controlled conditions in the glasshouse (at 24/18° C., day/night; 15 hours light; 50% humidity) and watered twice daily. After 13 days the test was evaluated (100=total damage to plant; 0=no damage to plant).” for “compound.”

[11] = tested on: Lolium perenne (LOLPE); assay: Post-emergence biological efficacy
Experimental: as §1, with “Chenopodium album (CHEAL),” for “Lolium perenne (LOLPE),”, “(IPOHE), Eleusine indica (ELEIN), Lolium perenne (LOLPE), Digitaria sanguinalis (DIGSA),” for “(IPOHE),”, “14 days” for “one day”, “compound. The test plants were then grown under controlled conditions in the glasshouse (at 24/18° C., day/night; 15 hours light; 50% humidity) and watered twice daily. After 13 days the test was evaluated (100=total damage to plant; 0=no damage to plant).” for “compound.”

[12] = tested on: Amaranthus palmeri (AMAPA); assay: Post-emergence biological efficacy
Experimental: as §1, with “Chenopodium album (CHEAL),” for “Lolium perenne (LOLPE),”, “(IPOHE), Eleusine indica (ELEIN), Lolium perenne (LOLPE), Digitaria sanguinalis (DIGSA),” for “(IPOHE),”, “14 days” for “one day”, “compound. The test plants were then grown under controlled conditions in the glasshouse (at 24/18° C., day/night; 15 hours light; 50% humidity) and watered twice daily. After 13 days the test was evaluated (100=total damage to plant; 0=no damage to plant).” for “compound.”

[13] = tested on: Chenopodium album (CHEAL); assay: Post-emergence biological efficacy
Experimental: as §1, with “Chenopodium album (CHEAL),” for “Lolium perenne (LOLPE),”, “(IPOHE), Eleusine indica (ELEIN), Lolium perenne (LOLPE), Digitaria sanguinalis (DIGSA),” for “(IPOHE),”, “14 days” for “one day”, “compound. The test plants were then grown under controlled conditions in the glasshouse (at 24/18° C., day/night; 15 hours light; 50% humidity) and watered twice daily. After 13 days the test was evaluated (100=total damage to plant; 0=no damage to plant).” for “compound.”

[14] = tested on: Eleusine indica (ELEIN); assay: Post-emergence biological efficacy
Experimental: as §1, with “Chenopodium album (CHEAL),” for “Lolium perenne (LOLPE),”, “(IPOHE), Eleusine indica (ELEIN), Lolium perenne (LOLPE), Digitaria sanguinalis (DIGSA),” for “(IPOHE),”, “14 days” for “one day”, “compound. The test plants were then grown under controlled conditions in the glasshouse (at 24/18° C., day/night; 15 hours light; 50% humidity) and watered twice daily. After 13 days the test was evaluated (100=total damage to plant; 0=no damage to plant).” for “compound.”

[15] = tested on: Echinochloa crus-galli (ECHCG); assay: Post-emergence biological efficacy
Experimental: as §1, with “Chenopodium album (CHEAL),” for “Lolium perenne (LOLPE),”, “(IPOHE), Eleusine indica (ELEIN), Lolium perenne (LOLPE), Digitaria sanguinalis (DIGSA),” for “(IPOHE),”, “14 days” for “one day”, “compound. The test plants were then grown under controlled conditions in the glasshouse (at 24/18° C., day/night; 15 hours light; 50% humidity) and watered twice daily. After 13 days the test was evaluated (100=total damage to plant; 0=no damage to plant).” for “compound.”

Structure (SMILES)	pest or weed control at 250 g/ha [1]	pest or weed control at 250 g/ha [2]	pest or weed control at 250 g/ha [3]	pest or weed control at 250 g/ha [4]	pest or weed control at 250 g/ha [5]	pest or weed control at 250 g/ha [6]	pest or weed control at 250 g/ha [7]	pest or weed control at 250 g/ha [8]	pest or weed control at 250 g/ha [9]	pest or weed control at 250 g/ha [10]	pest or weed control at 250 g/ha [11]	pest or weed control at 250 g/ha [12]	pest or weed control at 250 g/ha [13]	pest or weed control at 250 g/ha [14]	pest or weed control at 250 g/ha [15]
CCOC(=O)C(CC)OC(=O)c1cc(-n2c(=O)n(C)c(=S)n(C)c2=O)c(F)cc1Cl (stereo not shown) [Compound 1-114, 1-Ethoxycarbonylpropyl 2-chloro-5-(3,5-dimethyl-2,6-dioxo-4-thioxo-1,3,5-triazinan-1-yl)-4-fluoro-benzoate]	40%	10%	10%	70%	100%	100%	70%	20%	40%	30%	30%	20%	70%	20%	60%
CCNC(=O)C(C)(C)OC(=O)c1cc(-n2c(=O)n(C)c(=S)n(C)c2=O)c(F)cc1Cl [Compound 1-168, [2-(ethylamino)-1,1-dimethyl-2-oxo-ethyl] 2-chloro-5-(3,5-dimethyl-2,6-dioxo-4-thioxo-1,3,5-triazinan-1-yl)-4-fluoro-benzoate]	100%	90%	100%	100%	100%	100%	100%	100%	100%	100%	100%	100%	100%	100%	100%
CCOC(=O)C1(NC(=O)c2cc(-n3c(=O)n(C)c(=S)n(C)c3=O)c(F)cc2Cl)CC1 [Compound 1-240, ethyl 1-[[2-chloro-5-(3,5-dimethyl-2,6-dioxo-4-thioxo-1,3,5-triazinan-1-yl)-4-fluoro-benzoyl]amino]cyclopropanecarboxylate]	100%	10%	70%	30%	100%	30%	100%	70%	60%	80%	90%	100%	100%	100%	30%
CCOC(=O)C1(N(C)C(=O)c2cc(-n3c(=O)n(C)c(=S)n(C)c3=O)c(F)cc2Cl)CC1 [Compound 1-252, Ethyl 1-[[2-chloro-5-(3,5-dimethyl-2,6-dioxo-4-thioxo-1,3,5-triazinan-1-yl)-4-fluoro-benzoyl]-methyl-amino]cyclopropanecarboxylate]	–	–	–	–	100%	–	40%	0%	30%	0%	40%	50%	70%	50%	0%
CCOC(=O)CCNC(=O)c1cc(-n2c(=O)n(C)c(=S)n(C)c2=O)c(F)cc1Cl [Compound 1-342, Ethyl 3-[[2-chloro-5-(3,5-dimethyl-2,6-dioxo-4-thioxo-1,3,5-triazinan-1-yl)-4-fluoro-benzoyl]amino]propanoate]	90%	60%	80%	70%	80%	90%	40%	50%	70%	80%	20%	30%	30%	10%	80%

From patent publication US20250127170A1, “TRIAZINE HERBICIDAL COMPOUNDS” (SYNGENTA CROP PROTECTION AG, priority 2021, published 2025)
